In publication PMC8119466, “A screen of FDA-approved drugs identifies inhibitors of protein tyrosine phosphatase 4A3 (PTP4A3 or PRL-3)” (Scientific Reports, 2021):
Where a name gives a salt, the structure may show the parent alone.

Assays:
Format in all cases: biochemical
Conditions in all cases: FDA-approved drug screen; compared to DMSO
recombinant PRL-1 = target: T1, recombinant PRL-1 (Homo sapiens, UniProt Q93096); assay: In vitro phosphatase assay (DiFMUP hydrolysis), PRL-1; further: test concentration or dose not given here
T1 construct: 6xHis (N, cleaved yes); made in house; host or cells: E. coli One Shot BL21 Star
T1 sequence (Q93096 1-173): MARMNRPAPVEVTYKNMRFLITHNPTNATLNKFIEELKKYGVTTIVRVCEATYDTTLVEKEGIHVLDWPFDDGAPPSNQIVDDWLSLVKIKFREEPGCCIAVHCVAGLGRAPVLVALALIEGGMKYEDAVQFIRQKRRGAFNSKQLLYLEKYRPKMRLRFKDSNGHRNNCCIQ

recombinant PRL-2 = target: T2, recombinant PRL-2 (Homo sapiens, UniProt Q12974); assay: In vitro phosphatase assay (DiFMUP hydrolysis), PRL-2;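 further: PRL-2 activity read as DiFMUP hydrolysis after 20 min at room temperature with drug, enzyme first pre-reduced at 4 °C for 20 min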
T2 construct: 6xHis (N, cleaved yes); made in house; host or cells: E. coli One Shot BL21 Star
T2 sequence (Q12974 1-167): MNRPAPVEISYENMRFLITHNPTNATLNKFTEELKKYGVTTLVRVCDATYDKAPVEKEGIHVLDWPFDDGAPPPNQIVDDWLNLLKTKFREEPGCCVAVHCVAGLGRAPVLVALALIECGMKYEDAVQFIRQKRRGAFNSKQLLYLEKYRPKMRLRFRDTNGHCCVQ

recombinant PRL-3 = target: T3, recombinant PRL-3 (Homo sapiens, UniProt O75365); assay: In vitro phosphatase assay (DiFMUP hydrolysis), PRL-3; further: test concentration or dose not given here
T3 construct: 6xHis (N, cleaved yes); made in house; host or cells: E. coli One Shot BL21 Star
T3 sequence (O75365 whole entry): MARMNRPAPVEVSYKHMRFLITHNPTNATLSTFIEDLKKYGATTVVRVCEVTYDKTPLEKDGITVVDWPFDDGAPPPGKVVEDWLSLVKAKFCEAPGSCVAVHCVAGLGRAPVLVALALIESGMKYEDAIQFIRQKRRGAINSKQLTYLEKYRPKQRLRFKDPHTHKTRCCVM

SMILES | % Phosphatase Activity (compared to DMSO) PRL-1 (recombinant PRL-1) [%] | % Phosphatase Activity (compared to DMSO) PRL-2 (recombinant PRL-2) [%] | % Phosphatase Activity (compared to DMSO) PRL-3 (recombinant PRL-3) [%]
CN(C)c1ccc(O)c2c1C[C@H]1C[C@H]3[C@H](N(C)C)C(O)=C(C(N)=O)C(=O)[C@@]3(O)C(O)=C1C2=O [Minocycline HCl] | 84 | 70 | 104
Nc1nc(CC(=O)Nc2ccc(CCNC[C@H](O)c3ccccc3)cc2)cs1 [Mirabegron] | 104 | 113 | 88
CN1CCN2c3ncccc3Cc3ccccc3C2C1 (stereo not drawn) [Mirtazapine] | 92 | 114 | 98
CO[C@@]12[C@H](COC(N)=O)C3=C(C(=O)C(C)=C(N)C3=O)N1C[C@@H]1N[C@@H]12 [Mitomycin C] | 68 | 54 | 64
Clc1ccc(C(c2ccccc2Cl)C(Cl)Cl)cc1 (stereo not drawn) [Mitotane] | 98 | 93 | 103
O=C1c2c(O)ccc(O)c2C(=O)c2c(NCCNCCO)ccc(NCCNCCO)c21 [Mitoxantrone HCl] | 74 | 76 | 61
NC(=O)c1ncn([C@@H]2O[C@H](CO)[C@@H](O)[C@H]2O)c1O [Mizoribine] | 93 | 78 | 85
Nc1ccccc1NC(=O)c1ccc(CNc2nccc(-c3cccnc3)n2)cc1 [Mocetinostat (MGCD0103)] | 98 | 108 | 84
NC(=O)C[S+]([O-])C(c1ccccc1)c1ccccc1 (stereo not drawn) [Modafinil] | 91 | 92 | 82
CCOC(=O)[C@H](CCc1ccccc1)N[C@@H](C)C(=O)N1Cc2cc(OC)c(OC)cc2C[C@H]1C(=O)O [Moexipril HCl] | 103 | 98 | 83
CCOC(=O)CC(=O)N1CCSC1COc1ccccc1OC (stereo not drawn) [Moguisteine] | 104 | 98 | 87
O=c1c(-n2ccnn2)c[nH]n1-c1cc(N2CCOCC2)ncn1 [Molidustat (BAY 85-3934)] | 90 | 74 | 84
CCOC(=O)[N-]c1cn(N2CCOCC2)n[o+]1 [Molsidomine] | 99 | 110 | 79
C[C@@H]1C[C@H]2[C@@H]3CCC4=CC(=O)C=C[C@]4(C)[C@@]3(Cl)[C@@H](O)C[C@]2(C)[C@@]1(OC(=O)c1ccco1)C(=O)CCl [Mometasone furoate] | 85 | 87 | 77
Oc1ccc(OCc2ccccc2)cc1 [Monobenzone] | 105 | 112 | 72
CC(C)(O)c1ccccc1CC[C@@H](SCC1(CC(=O)O)CC1)c1cccc(/C=C/c2ccc3ccc(Cl)cc3n2)c1 [Montelukast Sodium] | 172 | 161 | 182
CCOc1cc(N)c(Cl)cc1C(=O)NCC1CN(Cc2ccc(F)cc2)CCO1 (stereo not drawn) [Mosapride Citrate] | 88 | 101 | 57
CCCN(CCC)C(=O)C1=Cc2ccc(-c3ccc(C(=O)N4CCCC4)cc3)cc2N=C(N)C1 [Motolimod (VTX-2337)] | 103 | 90 | 106
CO[C@@]1(NC(=O)C(C(=O)O)c2ccc(O)cc2)C(=O)N2C(C(=O)O)=C(CSc3nnnn3C)CO[C@@H]21 (stereo partly drawn) [Moxalactam Disodium] | 88 | 97 | 89
